US8063021B2, “Ketolide anti-infective compounds” (Kosan Biosciences Incorporated, priority 2003, dated 2011)
Like-named read-outs stand apart in the source and are kept apart here.

Experiments:
[1] = system: S. aureus ATCC 6538p; test: microdilution assay MIC, S. aureus ATCC 6538p; format: cell-based, Staphylococcus aureus; conditions: erythromycin sensitive strain, average where multiple assays
Procedure: (§1) In Table B, in some instances multiple assays were performed for a compound/strain combination, in which case the reported MIC is the average. S. pneumoniae ATCC 6301, ATCC 700671, and ATCC 49619 and S. aureus ATCC 6538p and ATCC 29213 are erythromycin sensitive strains.

[2] = system: S. aureus ATCC 14154; test: microdilution assay MIC, S. aureus ATCC 14154; format: cell-based, Staphylococcus aureus
Procedure: (§2) In Table B, in some instances multiple assays were performed for a compound/strain combination, in which case the reported MIC is the average.

[3] = system: S. aureus ATCC 29213; test: microdilution assay MIC, S. aureus ATCC 29213; format: cell-based, Staphylococcus aureus; conditions: S. aureus ATCC 29213, erythromycin sensitive strain, average where multiple assays
Procedure: as §1

[4] = system: S. pneumoniae ATCC 6301; test: microdilution assay MIC, S. pneumoniae ATCC 6301; format: cell-based, Streptococcus pneumoniae; conditions: S. pneumoniae ATCC 6301, erythromycin sensitive strain, average where multiple assays
Procedure: as §1

[5] = system: S. pneumoniae ATCC 700671; test: microdilution assay MIC, S. pneumoniae ATCC 700671; format: cell-based, Streptococcus pneumoniae; conditions: S. pneumoniae ATCC 700671, erythromycin sensitive strain, average where multiple assays
Procedure: as §1

[6] = system: S. pneumoniae ATCC 700676; test: microdilution assay MIC, S. pneumoniae ATCC 700676; format: cell-based, Streptococcus pneumoniae
Procedure: as §1

[7] = system: S. pneumoniae ATCC 700677; test: microdilution assay MIC, S. pneumoniae ATCC 700677; format: cell-based, Streptococcus pneumoniae
Procedure: as §1

[8] = system: S. pneumoniae ATCC 700905; test: microdilution assay MIC, S. pneumoniae ATCC 700905; format: cell-based, Streptococcus pneumoniae
Procedure: as §1

[9] = system: S. pneumoniae ATCC 700906; test: microdilution assay MIC, S. pneumoniae ATCC 700906; format: cell-based, Streptococcus pneumoniae
Procedure: as §2

[10] = system: S. pneumoniae ATCC 49619; test: microdilution assay MIC, S. pneumoniae ATCC 49619; format: cell-based, Streptococcus pneumoniae; conditions: S. pneumoniae ATCC 49619, erythromycin sensitive strain, average where multiple assays
Procedure: as §1

[11] = system: S. epidermidis ATCC 12228; test: microdilution assay MIC, S. epidermidis ATCC 12228; format: cell-based, Staphylococcus epidermidis
Procedure: as §1

[12] = system: E. faecalis ATCC 51575; test: microdilution assay MIC, E. faecalis ATCC 51575; format: cell-based, Enterococcus faecalis
Procedure: as §2

[13] = system: H. influenzae ATCC 9006; test: microdilution assay MIC, H. influenzae ATCC 9006; format: cell-based, Haemophilus influenzae
Procedure: as §1

[14] = system: H. influenzae ATCC 49766; test: microdilution assay MIC, H. influenzae ATCC 49766; format: cell-based, Haemophilus influenzae
Procedure: as §1

[15] = S. aureus ATCC 14154, erythromycin A resistant strain, average where multiple assays
[16] = S. pneumoniae ATCC 700676, erythromycin A resistant strain, average where multiple assays
[17] = S. pneumoniae ATCC 700677, erythromycin A resistant strain, average where multiple assays
[18] = S. pneumoniae ATCC 700905, erythromycin A resistant strain, average where multiple assays
[19] = S. pneumoniae ATCC 700906, erythromycin A resistant strain, average where multiple assays

SMILES | MIC [1] [µg/mL] | MIC [2, 15] [µg/mL] | MIC [3] [µg/mL] | MIC [4] [µg/mL] | MIC [5] [µg/mL] | MIC [6, 16] [µg/mL] | MIC [7, 17] [µg/mL] | MIC [8, 18] [µg/mL] | MIC [9, 19] [µg/mL] | MIC [10] [µg/mL] | MIC ([11]; average where multiple assays) [µg/mL] | MIC ([12]; average where multiple assays) [µg/mL] | MIC ([13]; average where multiple assays) [µg/mL] | MIC ([14]; average where multiple assays) [µg/mL] | further results
COC1(C)CC(C)C(=O)C(C)C2NC(=O)OC2(C)C(CCN(C)CCc2cccc(-c3ccco3)c2)OC(=O)C(C)C(=O)C(C)C1OC1OC(C)CC(N(C)C)C1O (centres unmarked) [Compound 103] | 0.098 | 0.39 | 0.39 | 0.049 | 0.049 | 0.049 | 0.098 | 0.049 | >12.5 | 0.049 | 0.049 | 12.5 | >12.5 | >12.5 | –
COC1(C)CC(C)C(=O)C(C)C2NC(=O)OC2(C)C(CCN(Cc2cccc(-c3ccco3)c2)Cc2cccc(-c3ccco3)c2)OC(=O)C(C)C(=O)C(C)C1OC1OC(C)CC(N(C)C)C1O (centres unmarked) [Compound 104] | >12.5 | 6.25 | 6.25 | 3.12 | 3.12 | 6.25 | 6.25 | >12.5 | >12.5 | >12.5 | 6.25 | 12.5 | >12.5 | >12.5 | –
COC1(C)CC(C)C(=O)C(C)C2NC(=O)OC2(C)C(CCNS(=O)(=O)c2ccc3ccccc3c2)OC(=O)C(C)C(=O)C(C)C1OC1OC(C)CC(N(C)C)C1O (centres unmarked) [Compound 107] | 0.01 | 1.56 | 0.025 | 0.01 | 0.01 | 0.01 | 0.01 | 0.01 | 3.12 | 0.01 | 0.025 | 0.025 | 12.5 | 12.5 | –
COC1(C)CC(C)C(=O)C(C)C2NC(=O)OC2(C)C(CCNS(=O)(=O)c2cccc(-c3ccco3)c2)OC(=O)C(C)C(=O)C(C)C1OC1OC(C)CC(N(C)C)C1O (centres unmarked) [Compound 108] | 0.025 | 0.049 | 0.025 | 0.025 | 0.025 | 0.025 | 0.025 | 0.025 | 0.049 | 0.025 | 0.025 | 0.025 | 12.5 | >12.5 | –
COC1(C)CC(C)C(=O)C(C)C2NC(=O)OC2(C)C(CCNS(=O)(=O)c2cccc3ccccc23)OC(=O)C(C)C(=O)C(C)C1OC1OC(C)CC(N(C)C)C1O (centres unmarked) [Compound 106] | 0.01 | 3.12 | 0.025 | 0.01 | 0.01 | 0.01 | 0.01 | 0.01 | 12.5 | 0.01 | 0.025 | 0.025 | 6.25 | 6.25 | –
COC1(C)CC(C)C(=O)C(C)C2NC(=O)OC2(C)C(CCNS(=O)(=O)c2cccc3cccnc23)OC(=O)C(C)C(=O)C(C)C1OC1OC(C)CC(N(C)C)C1O (centres unmarked) [Compound 105] | 0.049 | 0.39 | 0.049 | 0.01 | 0.01 | 0.01 | 0.01 | 0.01 | 0.39 | 0.01 | 0.025 | 0.025 | 3.12 | 6.25 | –
CC[C@H]1OC(=O)[C@H](C)C(=O)[C@H](C)[C@@H](O[C@@H]2O[C@H](C)C[C@H](N(C)C)[C@H]2O)[C@](C)(OC)C[C@@H](C)C(=O)[C@H](C)[C@H]2N(CCCCn3cnc(-c4cccnc4)c3)C(=O)O[C@]12C [Tel, telithromycin, reference compound] | – | – | – | – | – | – | – | – | – | – | – | – | – | – | MIC ([1]; Staphylococcus aureus, ATCC6538P, read-out: MIC): 0.025 µg/mL; MIC ([2]; Staphylococcus aureus, ATCC14154, read-out: MIC): > 12.5 µg/mL; MIC ([3]; Staphylococcus aureus, ATCC29213, read-out: MIC): 0.025 µg/mL; MIC ([4]; Streptococcus pneumoniae, ATCC6301, read-out: MIC): 0.025 µg/mL; MIC ([5]; Streptococcus pneumoniae, ATCC700671, read-out: MIC): 0.025 µg/mL; MIC ([6]; Streptococcus pneumoniae, ATCC700676, read-out: MIC): 0.098 µg/mL; MIC ([7]; Streptococcus pneumoniae, ATCC700677, read-out: MIC): 0.025 µg/mL; MIC ([8]; Streptococcus pneumoniae, ATCC700905, read-out: MIC): 0.025 µg/mL; MIC ([9]; Streptococcus pneumoniae, ATCC700906, read-out: MIC): 0.2 µg/mL; MIC ([10]; Streptococcus pneumoniae, ATCC49619, read-out: MIC): 0.049 µg/mL; MIC ([11]; Staphylococcus epidermidis, ATCC12228, average where multiple assays, read-out: MIC): 0.025 µg/mL; MIC ([12]; Enterococcus faecalis, ATCC51575, average where multiple assays, read-out: MIC): > 12.5 µg/mL; MIC ([13]; Haemophilus influenzae, ATCC9006, average where multiple assays, read-out: MIC): 1.56 µg/mL; MIC ([14]; Haemophilus influenzae, ATCC49766, average where multiple assays, read-out: MIC): 3.12 µg/mL
